One assay concerns pGSK-3β. Briefly: surrogate PD biomarker assay: phospho-GSK-3β in platelet rich plasma of patients. The format is in vivo, human. The conditions noted are these: doses≥200 mg, ratio to pre-dose. As for the experimental part:
Phospho-GSK-3b in Platelet rich plasma (PRP) was used as a surrogate PD biomarker to measure Akt pathway inhibition in patients after treatment with GDC-0068 at different time points over 22 days. Peripheral blood was collected in Vacutainer containing 0.38% of citrate as anti-coagulant. Blood was spun at 200 g for 15 min at room temperature. The PRP layer was carefully taken from the tube and then lysed in a buffer containing detergents, protease and phosphatase inhibitors. Phosphorylated and total GSK-3β levels in PRP lysates were measured using a phospho-GSK3β/total-GSK30 multiplexed MSD assay. pGSk-3β levels were normalized to total GSk-3β levels and post-dose inhibition of pGSk-3β was expressed as a ratio of the pre-dose levels for each patient.

The test system of another assay is pPRAS40. Briefly: reverse phase protein arrays of tumor biopsies from patients: pPRAS40. The format is in vivo, human. The conditions noted are these: all 3 patients treated at 400 mg daily. The protocol: (§1) Core-needle tumor biopsies from patients treated with GDCC0068 were flash-frozen in OCT and sectioned into 8 um slices. Tissue was lysed in RPPA lysis buffer containing TPER, 300 mM NaCl and phosphatase inhibitors. Phosphoprotein signatures of the lysates were analysed using Reverse-Phase protein arrays: samples were printed on nitrocellulose slides and stained with Sypro to determine total protein concentrations. Each slide was stained with a different antibody at 4° C. overnight. The data was then normalized to total protein levels and spatial effects were removed using Quadrant median normalization. Decreases of 60%-70% in pPRAS40 and ˜50% decrease in Cyclin D1 (compared with baseline) occurred in all 3 patients treated at 400 mg daily. For methods and overview of RPPA see: Reverse phase protein microarrays advance to use in clinical trials, Molecular Oncology. 2010 December; 4(6):461-81, Mueller C et al. In certain embodiments, the cancer to be treated herein comprises one or more of AKT, PI3k, PTEN and HER2 mutations or AKT, PI3k, PTEN or HER2 abberant signaling. In one example, the cancer is gastric cancer comprising high pAKT activity and PTEN low or null status.

A further assay concerns Cyclin D1. The assay can be described thus: reverse phase protein arrays of tumor biopsies from patients: Cyclin D1. The format is in vivo, human. The conditions noted are these: all 3 patients treated at 400 mg daily. The protocol:
as §1

For another assay, the system named is xenograft models. Briefly: single agent activity in xenograft models. In kind it is in vivo. The conditions noted are these: models with AKT pathway activation and without MEK pathway activation.
Assay [1] has as its system cell lines with AKT pathway activation (PTEN loss, PI3K mutations). Briefly: combination with MEK inhibitor in cell lines, BLISS analysis. Conditions: in combination with a MEK inhibitor (GDC-0973). The format is cell-based. An excerpt:
BLISS analysis indicates broad synergy for GDC-0068 in combination with a MEK inhibitor (GDC-0973).

The nature of assay [2]: combo screens with 5FU/Cisplatin. In kind it is cell-based. The conditions noted are these: combination with Cisplatin+5FU; associated with PTEN, pAKT, PI3K mutation. An excerpt: FIG. 15 depicts results that the combination effects of GDC-0068 with Cisplatin+5FU are associated with AKT pathway activation.
The target in the next assay is T1, AKT1 kinase domain alone (Homo sapiens, UniProt P31749).
T1 construct: using purified recombinant PH and kinase domains
The assay can be described thus: in vitro biochemical assay, AKT1 kinase domain alone. Conditions: purified recombinant kinase domain, no PH domain. The protocol:
(§2) To confirm that the reduced sensitivity of the mutants to allosteric inhibitors was due to the impaired PH-KD interactions, an in vitro biochemical reconstitution assay was performed using purified recombinant PH and kinase domains.

Assay [3] relates to AKT1 kinase domain reconstituted with WT PH domain. The assay can be described thus: in vitro biochemical reconstitution assay, WT PH domain added to kinase domain. As for the experimental part:
as §2

For assay [4], the target named is T2, WT PH domain reconstituted with mutant D323H kinase domain (Homo sapiens, UniProt P31749, D323H).
T2 construct: using purified recombinant PH and kinase domains
The assay can be described thus: in vitro biochemical reconstitution assay, WT PH domain with D323H kinase domain. Conditions: in words. As for the experimental part:
as §2

The subject of assay [5] is NIH3T3 cells expressing WT or AKT1 mutants. The assay can be described thus: cell based proliferation assay, NIH3T3 cells expressing WT or AKT1 mutants. An excerpt:
(§3) Several ATP-competitive and allosteric small molecule inhibitors of AKT are in development and/or clinical trials (Mattmann et al., (2011). Expert Opin Ther Pat.; Pal et al., (2010). Expert Opin Investig Drugs 19, 1355-1366). Previous studies have shown that allosteric inhibitors of AKT require the presence of an intact PH-KD interface for their activity. Given that some AKT1 somatic mutants have impaired PH-KD contacts, it was predicted that allosteric inhibitors are likely to be less efficacious in inhibiting the activity of these mutants.

The target of the next assay is T3, WT AKT1 enzyme (Homo sapiens, UniProt P31749).
T3 construct: were tested on recombinant full-length WT and mutant AKT1 enzymes
The assay can be described thus: biochemical activity assay, recombinant full-length WT AKT1 enzyme. The conditions noted are these: in words. From the text:
Several ATP-competitive and allosteric small molecule inhibitors of AKT are in development and/or clinical trials (Mattmann et al., (2011). Expert Opin Ther Pat.; Pal et al., (2010). Expert Opin Investig Drugs 19, 1355-1366).

In assay [6] the test system is mutant AKT1 enzymes (E17K, L52R and D323H). The assay can be described thus: biochemical activity assay, recombinant full-length mutant AKT1 enzymes. Conditions: in words.
Excerpt: as §3

A value given as a limit tells only on which side of the number the result lay.

T1 sequence (P31749 150-408 limits assumed): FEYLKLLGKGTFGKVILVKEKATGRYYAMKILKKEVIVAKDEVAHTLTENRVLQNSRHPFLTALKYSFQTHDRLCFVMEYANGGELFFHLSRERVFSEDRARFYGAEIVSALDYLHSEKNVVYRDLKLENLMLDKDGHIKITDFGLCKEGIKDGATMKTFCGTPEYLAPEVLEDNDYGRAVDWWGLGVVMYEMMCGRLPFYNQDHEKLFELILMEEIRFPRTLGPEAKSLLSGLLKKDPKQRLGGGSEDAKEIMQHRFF
T3 sequence (P31749 whole entry): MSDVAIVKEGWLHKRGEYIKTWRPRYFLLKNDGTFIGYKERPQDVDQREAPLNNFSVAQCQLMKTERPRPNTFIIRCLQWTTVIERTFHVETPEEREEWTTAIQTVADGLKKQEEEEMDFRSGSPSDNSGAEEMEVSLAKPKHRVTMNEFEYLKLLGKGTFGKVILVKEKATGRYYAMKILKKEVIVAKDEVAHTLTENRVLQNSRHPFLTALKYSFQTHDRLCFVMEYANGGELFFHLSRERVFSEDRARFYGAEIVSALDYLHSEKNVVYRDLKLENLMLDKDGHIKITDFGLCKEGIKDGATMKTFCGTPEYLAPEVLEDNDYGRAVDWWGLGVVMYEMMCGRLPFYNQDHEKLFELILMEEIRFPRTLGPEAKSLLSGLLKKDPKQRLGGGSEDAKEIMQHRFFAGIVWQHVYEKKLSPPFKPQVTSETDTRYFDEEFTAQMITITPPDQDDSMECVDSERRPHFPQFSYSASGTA
T2 sequence (P31749 150-408 D323H limits assumed): as the sequence (P31749 150-408 limits assumed) above, with D174H counted along it

Turning to `CC(C)NC[C@@H](C(=O)N1CCN(c2ncnc3c2[C@H](C)C[C@H]3O)CC1)c1ccc(Cl)cc1` [GDC-0068], the “decrease in pGSK3β level” value in the assay with pGSK-3β was not below 75%. The “decrease in pPRAS40 compared with baseline” value with pPRAS40 is given as 60%-70%. For the same compound, the “decrease in Cyclin D1 compared with baseline” value in the assay with Cyclin D1 is given as approximately 50%. Also, the “single agent efficacy in xenograft models” value in the assay on xenograft models is “Robust efficacy”. The “combination effect, BLISS analysis” value in assay [1] is recorded as “broad synergy”. Further, the combination effect entry in assay [2] is reported as “additive effects”.
Take `O=c1[nH]c2ccccc2n1C1CCN(Cc2ccc(-c3nc4cc5[nH]cnc5cc4nc3-c3ccccc3)cc2)CC1` [Inhibitor VIII]: the “blocking activity of AKT1 kinase domain alone” value at AKT1 kinase domain alone is given as “unable to block its activity”. In addition, the “increase in IC50 for the reconstituted enzyme compared to the full length WT enzyme” value in [3] is on record as “three fold”. Moreover, in assay [3] (reconstituted enzyme, WT PH domain + kinase domain), the IC50 stood at 239 nM. In addition, in assay [4], the “activity when WT PH domain was reconstituted with mutant D323H kinase domain” value is “no activity”. Further, the “less effective at blocking proliferation of cells expressing mutant AKT1 compared to WT AKT” value in [5] was “at least 50%”.
As for `CCn1c(-c2nonc2N)nc2c(C#CC(C)(C)O)ncc(OC[C@H]3CCCNC3)c21` [GSK690693], the “blocking the activity of the WT AKT1 enzyme” value on WT AKT1 enzyme is “effective”. Also, the “blocking the activity of the mutant enzymes” value in [6] (E17K, L52R and D323H) was “effective”.
With `NC(=O)[C@@H]1CCCCN1CCCN(C(=O)c1cccs1)c1nc(-c2ccncc2)cs1` [GNE-929], the “effectiveness against recombinant full-length mutant enzymes compared to WT AKT1” value in [6] is “less effective”.

For the origin of these results see patent US20250281489A1, “BIOMARKERS FOR PREDICTING SENSITIVITY TO CANCER TREATMENTS” (Genentech, Inc., priority 2011, published 2025).
